Read-outs that look alike come from different tables or passages of the source.
Legend:
[1] = tested on: integrin αvβ3 expressing U87 cells; assay: In vitro cell adhesion assay (U87 cells to fibrinogen); type: cell-based, human; details: 2 h, read-out: IC50, inhibition of cell adhesion to fibrinogen
Text: The cell adhesion assay is a cell-based assay that measures how well different compounds (i.e., different conjugates or structures) block the adhesion of integrin αvβ3 expressing U87 cells to fibrinogen, a macromolecule that binds to the integrin αvβ3 receptor. The IC50 value is the compound concentration at which the compound displaces 50% of the cell adhesion to fibrinogen, which inhibits 50% of the cells from adhering to fibrinogen.
The cell adhesion assay is a functional cell assay, so the conjugates cannot be used with chemotherapy attached, because the conjugates will release the chemo over the course of the testing, killing the cells so that no readout can be obtained. Thus, the full conjugate molecule (targeting moiety, PEG, cleavable linker) is used without the chemo for this assay. Two compounds (conjugate 74 and conjugate 59) used are slightly different integrin αvβ3 targeting pieces with a large PEG (PEG 35 and PEG39, respectively), and the VCP cleavable linker attached. […]
96-well microtiter plates were coated with up to […] fibrinogen per well in […] phosphate-buffered saline (PBS) and incubated at 4° C. overnight. […] After washing with PBS, the fluorescence intensity of adherent cells was measured at an emission wavelength of 530 nm using an excitation wavelength of 485 nm by using a Microplate Reader.

[2] = tested on: human glioblastoma U87 cells; assay: In vitro cell viability assay (MTT), U87; type: cell-based; details: for IC50: U87 cells; for cell viability result in words: U87 and MCF7 cells
Description: The cell viability assay measures how effectively different compounds (i.e., different conjugates or structures) kill cancer cells in vitro.
For the cell viability assay, the actual potency IC50 values depend on a number of factors, including the length of incubation time.
(§1) Human glioblastoma cells (U87-luc) were seeded in 96-well plates ([…]) and were treated with the compounds of interest at concentrations 1, 3, 10, 30, and 100 µM. At the end of the experiments, the cell cultures were supplemented with MTT reagent (3-(4,5-dimethylthiazol-2-yl)-2,5-diphenyltetrazolium bromide) and incubated for an additional 4 hours. Then, dimethyl sulfoxide ([…]) was added to the cell culture to dissolve the formazan crystals and incubated for 10 minutes at room temperature. The absorbance rate of the cell cultures was read at 570 nm by using a Microplate Reader. All the reactions were performed in triplicate. Measured data of cellular proliferation were calculated using viability values of untreated control cells (100%).

[3] = tested on: human breast cancer MCF7 cells; assay: In vitro cell viability assay (MTT), MCF7; type: cell-based
Description: [The source words this procedure for another cell line and reports this cell line under the same test.] The cell viability assay measures how effectively different compounds (i.e., different conjugates or structures) kill cancer cells in vitro. The IC50 value is the compound concentration at which the conjugate kills 50% of the cells, which inhibits 50% of the cells from remaining alive.
For the cell viability assay, the actual potency IC50 values depend on a number of factors, including the length of incubation time. Thus, the cell viability assay is particularly effective for determining the relative toxicity of different compounds.
as §1

CWR-R1ca-Luc cells = assay: In vivo efficacy, prostate cancer tumors in nude mice; details: for average prostate cancer tumor volume: 0.5 mole of compound/kg mouse each day, subcutaneous, 3 weeks; for IVIS average photons (viable tumor tissue) / average prostate cancer tumor weight: at conclusion of 3 weeks, daily subcutaneous dosing
Description: (§2) The animal model and treatment used a total of 50 Athymic Nude-Foxn1^nu male mice which were purchased from Envigo, Indianapolis, IN, USA. The mice were housed in a clean room under strict conditions. Under the approval of the Institutional Animal Care and Use Committee, all animal protocols were carried out in line with the National Institute of Health Guide for the Care and Use of Laboratory Animals. Once cells reached 70-80% confluency, the cells were collected and counted. About 2×10^6 CWR-R1ca-Luc cells were mixed in 1:1 Matrigel® Matrix (Life Sciences, Tewksbury, MA) and injected subcutaneously into the flank of each mouse. Measurement of tumor volume of prostate cancer tumors of mice and mice weights were taken biweekly. When a palpable tumor developed, size 300-500 mm^3, mice were randomized into 10 groups with 5 mice in each group. The corresponding treatment was injected subcutaneously every day per each group up to 3 weeks. Before starting the treatment, the mice were injected with luciferin 150 mg/kg intraperitoneally. After 20 minutes, the mice were anesthetized in an induction chamber using 2% isoflurane, and bioluminescence images were taken using IVIS® Lumina III In Vivo Imaging System (PerkinElmer, Boston, MA) as a base line. Before the end of the experiment, the imaging process was repeated for all mice groups.
(§3) All compounds were dosed at 0.5 mole of compound/kg mouse each day. Thus, a 20 g mouse was dosed at […] of compound per day, and larger mice were dosed at correspondingly higher doses in proportionality to mouse body weight. […] The concentration of each formulation was adjusted so that each dose would be 10 μL solution/g mouse.
FIGS. 4A, 4B, 5, 6 and 7 all pertain to the same experiment conducted with mice having prostate cancer over a study period of three weeks.

[4] = Body weight of tumor-bearing mice (toxicity); type: in vivo; details: daily subcutaneous dosing; for toxicity indicated by body weight: 3 weeks; for average body weight: at conclusion of 3 weeks
Description: as §2, §3
FIG. 7 is a bar graph of average body weight of the mice at the conclusion of the study period of three weeks for conjugate 59, conjugate 61, conjugate 62, MMAE chemo, and PBS (control), in accordance with embodiments of the present invention. Average body weight changes over the course of the study relative to control, particularly due to loss of body weight, which can relate to toxicity of the treatment group.

[5] = Solubility in PBS on formulation; type: physicochemical; details: formulation for dosing
Description: as §3

integrin αvβ3 receptor = target: T1, integrin αvβ3 receptor (Homo sapiens, UniProt P05106+P06756); assay: In vitro integrin αvβ3 binding assay; details: immobilized integrin αvβ3; read-out: IC50, displacement of labelled integrin αvβ3 ligand
T1 construct: purchased ACRO Biosystems (Newark, DE) and/or Bioss Inc (Woburn, MA)
Text: The in vitro integrin αvβ3 binding assay measures the binding affinity for different compounds (i.e., different conjugates or structures) with immobilized integrin αvβ3 receptor. The IC50 value is the compound concentration at which the compound displaces 50% of a labelled integrin αvβ3 ligand from the integrin αvβ3 receptor, which inhibits 50% of the labelled integrin αvβ3 ligand from binding to the integrin αvβ3 receptor.
Ninety-six polystyrene microtiter plate was coated with fibrinogen and incubated at 4° C. overnight. The wells were blocked with 3% BSA for 2 hours at room temperature and were washed with buffer A (50 mM Tris/HCl, 100 mM NaCl, 1 mM CaCl2), 1 mM MgCl2, 1% BSA) three times. Integrins αvβ3 and increasing concentrations of the compound of interest were added and incubated for 2 hours at room temperature, and then wells were washed three times with buffer A and incubated with a streptavidin HRP conjugate (1:1000 in buffer A) for 1 hour at room temperature. Finally, wells were washed three times with buffer A and […] peroxidase substrate TMB was added, and the reaction was terminated after 30 minutes with 50 µL of 450 nm stop solution for TMB. Absorbance was determined at 450 nm with a Microplate Reader (Bio-Rad, Hercules, CA, USA). […]

T1 sequence (P06756 31-992 limits assumed): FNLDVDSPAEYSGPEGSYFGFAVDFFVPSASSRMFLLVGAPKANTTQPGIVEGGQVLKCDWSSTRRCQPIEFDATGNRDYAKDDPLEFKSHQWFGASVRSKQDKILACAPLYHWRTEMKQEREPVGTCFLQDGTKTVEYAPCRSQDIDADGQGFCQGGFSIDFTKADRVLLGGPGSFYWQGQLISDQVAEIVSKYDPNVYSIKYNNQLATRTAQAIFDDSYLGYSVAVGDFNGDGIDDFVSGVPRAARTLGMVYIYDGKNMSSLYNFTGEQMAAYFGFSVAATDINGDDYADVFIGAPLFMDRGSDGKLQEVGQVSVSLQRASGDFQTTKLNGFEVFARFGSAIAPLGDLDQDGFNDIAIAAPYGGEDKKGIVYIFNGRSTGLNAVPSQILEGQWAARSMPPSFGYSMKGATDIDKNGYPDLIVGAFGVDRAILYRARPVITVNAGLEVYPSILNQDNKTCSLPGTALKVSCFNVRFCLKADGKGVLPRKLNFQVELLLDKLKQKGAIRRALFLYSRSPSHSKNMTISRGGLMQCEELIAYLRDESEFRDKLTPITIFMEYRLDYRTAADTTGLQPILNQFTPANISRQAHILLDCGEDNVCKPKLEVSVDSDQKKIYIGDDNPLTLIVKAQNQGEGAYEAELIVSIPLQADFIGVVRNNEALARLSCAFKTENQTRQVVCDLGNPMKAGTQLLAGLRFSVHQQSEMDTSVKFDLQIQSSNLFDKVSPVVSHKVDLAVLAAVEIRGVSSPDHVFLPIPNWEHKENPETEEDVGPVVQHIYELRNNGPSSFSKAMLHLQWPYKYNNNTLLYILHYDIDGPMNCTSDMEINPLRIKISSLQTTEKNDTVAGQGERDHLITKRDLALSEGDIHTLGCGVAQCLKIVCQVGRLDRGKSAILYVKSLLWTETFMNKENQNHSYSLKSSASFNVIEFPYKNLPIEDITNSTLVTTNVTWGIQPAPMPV
T1 sequence (P05106 27-718 limits assumed): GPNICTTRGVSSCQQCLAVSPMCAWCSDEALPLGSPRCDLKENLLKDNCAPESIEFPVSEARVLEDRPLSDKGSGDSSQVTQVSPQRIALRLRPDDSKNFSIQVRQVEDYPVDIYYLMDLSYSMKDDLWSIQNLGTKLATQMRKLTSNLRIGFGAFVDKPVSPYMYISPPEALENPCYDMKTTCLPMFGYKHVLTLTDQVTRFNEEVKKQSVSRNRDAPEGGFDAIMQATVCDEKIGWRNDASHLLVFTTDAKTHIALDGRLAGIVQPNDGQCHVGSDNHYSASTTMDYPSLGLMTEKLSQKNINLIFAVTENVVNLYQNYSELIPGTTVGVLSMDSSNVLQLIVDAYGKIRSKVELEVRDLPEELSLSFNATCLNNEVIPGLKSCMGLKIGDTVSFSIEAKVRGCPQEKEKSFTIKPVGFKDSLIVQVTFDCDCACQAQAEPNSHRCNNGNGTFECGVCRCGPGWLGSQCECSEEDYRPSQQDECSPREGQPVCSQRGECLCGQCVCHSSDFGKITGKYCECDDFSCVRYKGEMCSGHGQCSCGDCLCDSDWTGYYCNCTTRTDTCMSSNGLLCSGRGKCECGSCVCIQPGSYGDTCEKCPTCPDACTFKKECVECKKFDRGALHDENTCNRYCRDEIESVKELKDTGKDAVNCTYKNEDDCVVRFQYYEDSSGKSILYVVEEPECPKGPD

Question: For `CC(C)[C@H](NC(=O)CCOCCOCCOCc1cn(CCOCCOCCOCCOCCOCCOCCOCCOCCOCCOCCOCCOCCOCCOCCOCCOCCOCCOCCOCCOCCOCCOCCOCCOCCOCCOCCOCCOCCOCCOCCOCCOCCOCCOCCOCCOCCC(=O)NC[C@H](NS(=O)(=O)c2ccccc2)C(=O)O)nn1)C(=O)N[C@@H](CCCNC(N)=O)C(=O)Nc1ccc(CO)cc1` [conjugate 59], which IC50 [1] is on record?
Answer: 0.103 ± 0.0017 µM

Question: For `CCc1c2c(nc3ccc(O)cc13)-c1cc3c(c(=O)n1C2)COC(=O)[C@]3(O)CC` [SN38, reference compound], which IC50 ([2]; Homo sapiens, U-87 MG) is on record?
Answer: 0.00432 µM

Question: What about the IC50 ([3]; Homo sapiens) of the same molecule?
Answer: 0.00567 µM

Question: For `NC(=O)c1cccc2cn(-c3ccc([C@@H]4CCCNC4)cc3)nc12` [Niraparib, reference compound], which IC50 ([2]; Homo sapiens, U-87 MG) is on record?
Answer: 0.155 µM

Question: For `CC[C@H](C)[C@@H](C(CC(=O)N1CCC[C@H]1[C@H](OC)[C@@H](C)C(=O)N[C@H](C)[C@@H](O)c1ccccc1)OC)N(C)C(=O)[C@@H](NC(=O)[C@@H](NC)C(C)C)C(C)C` (some centres unmarked) [MMAE, monomethylauristatin E, reference compound], which IC50 ([2]; Homo sapiens, U-87 MG) is on record?
Answer: 0.00251 µM

Question: What about the IC50 ([3]; Homo sapiens) of the same molecule?
Answer: 0.00385 µM

Question: And the “average prostate cancer tumor volume” value (CWR-R1ca-Luc cells)?
Answer: smaller tumor volumes than the non-MMAE conjugate 59

Question: And the “IVIS average photons (viable tumor tissue)” value (CWR-R1ca-Luc cells)?
Answer: smaller IVIS® numbers than the non-MMAE conjugate 59

Question: And the “average prostate cancer tumor weight” value (CWR-R1ca-Luc cells)?
Answer: smaller tumor weights than the non-MMAE conjugate 59

Question: What about the “toxicity indicated by body weight” value [4] of the same molecule?
Answer: high toxicity

Question: And the average body weight [4]?
Answer: a loss of body weight over the course of the experiment

Question: And the “solubility in straight PBS” value [5]?
Answer: less soluble in straight PBS

Question: Which IC50 ([3]; Homo sapiens) does the source give for `Nc1ccn([C@@H]2O[C@H](CO)[C@@H](O)C2(F)F)c(=O)n1` [Gemcitabine, reference compound] here?
Answer: 1.79 µM

Question: Which IC50 (integrin αvβ3 receptor) does the source give for `CC(C)[C@H](NC(=O)CCc1cn(CCOCCOCCOCCOCCOCCOCCOCCOCCOCCOCCOCCOCCOCCOCCOCCOCCOCCOCCOCCOCCOCCOCCOCCOCCOCCOCCOCCOCCOCCOCCOCCOCCOCCOCCOCCNC(=O)CCC(NS(=O)(=O)c2ccccc2)C(=O)O)nn1)C(=O)N[C@@H](CCCNC(N)=O)C(=O)Nc1ccc(COC(=O)Nc2ccn([C@@H]3O[C@H](CO)C(O)C3(F)F)c(=O)n2)cc1` (some centres unmarked) [conjugate 45] here?
Answer: 0.00084 ± 0.00016 µM

Question: And the IC50 [3]?
Answer: 3.97 µM

Question: What does the source list for `CCc1c2c(nc3ccc(O)cc13)-c1cc3c(c(=O)n1C2)COC(=O)[C@@]3(CC)OC(=O)N(C)CCN(C)C(=O)OCc1ccc(NC(=O)[C@H](CCCNC(N)=O)NC(=O)[C@@H](NC(=O)CCc2cn(CCOCCOCCOCCOCCOCCOCCOCCOCCOCCOCCOCCOCCOCCOCCOCCOCCOCCOCCOCCOCCOCCOCCOCCOCCOCCOCCOCCOCCOCCOCCOCCOCCOCCOCCOCCOC)nn2)C(C)C)cc1` [conjugate 73]?
Answer: cell viability result in words [2]: no activity; IC50 [2]: > 10 µM; IC50 [3]: > 10 µM

Question: For `CC(C)[C@H](NC(=O)CCc1cn(CCOCCOCCOCCOCCOCCOCCOCCOCCOCCOCCOCCOCCOCCOCCOCCOCCOCCOCCOCCOCCOCCOCCOCCOCCOCCOCCOCCOCCOCCOCCOCCOCCOCCOCCOCCNC(=O)CC[C@H](NS(=O)(=O)c2ccccc2)C(=O)O)nn1)C(=O)N[C@@H](CCCNC(N)=O)C(=O)Nc1ccc(COC(=O)N2CCCC(c3ccc(-n4cc5cccc(C(N)=O)c5n4)cc3)C2)cc1` (some centres unmarked) [conjugate 40], which IC50 (integrin αvβ3 receptor) is on record?
Answer: 0.00336 ± 0.00022 µM

Question: What about the IC50 [2] of the same molecule?
Answer: 1.74 µM

Question: Which IC50 [1] does the source give for `CC(C)[C@H](NC(=O)CCc1cn(CCOCCOCCOCCOCCOCCOCCOCCOCCOCCOCCOCCOCCOCCOCCOCCOCCOCCOCCOCCOCCOCCOCCOCCOCCOCCOCCOCCOCCOCCOCCOCCOCCOCCOCCOCCNC(=O)CC[C@H](NS(=O)(=O)c2ccccc2)C(=O)O)nn1)C(=O)N[C@@H](CCCNC(N)=O)C(=O)Nc1ccc(CO)cc1` [conjugate 74] here?
Answer: 0.054 ± 0.0022 µM

Question: And the “cell viability result in words” value [2]?
Answer: does not cause cell death

Question: And the IC50 [2]?
Answer: > 10 µM

Question: And the IC50 [3]?
Answer: > 10 µM

Question: For `CC[C@H](C)[C@@H]([C@@H](CC(=O)N1CCC[C@H]1[C@H](OC)[C@@H](C)C(=O)N[C@H](C)[C@@H](O)c1ccccc1)OC)N(C)C(=O)[C@@H](NC(=O)[C@H](C(C)C)N(C)C(=O)OCc1ccc(NC(=O)[C@H](CCCNC(N)=O)NC(=O)[C@@H](NC(=O)CCOCCOCCOCc2cn(CCOCCOCCOCCOCCOCCOCCOCCOCCOCCOCCOCCOCCOCCOCCOCCOCCOCCOCCOCCOCCOCCOCCOCCOCCOCCOCCOCCOCCOCCOCCOCCOCCOCCOCCOCCOCCC(=O)NC[C@H](NS(=O)(=O)c3ccccc3)C(=O)O)nn2)C(C)C)cc1)C(C)C` [conjugate 61], which “average prostate cancer tumor volume” value (CWR-R1ca-Luc cells) is on record?
Answer: inhibits tumor growth more than the PEG15 conjugate 62

Question: And the “IVIS average photons (viable tumor tissue)” value (CWR-R1ca-Luc cells)?
Answer: much smaller than the smaller PEG15 conjugate 62 and MMAE alone

Question: And the “average prostate cancer tumor weight” value (CWR-R1ca-Luc cells)?
Answer: comparable to the smaller PEG15 MMAE conjugate 62

Question: And the “toxicity indicated by body weight” value [4]?
Answer: mild toxicity

Question: And the average body weight [4]?
Answer: only a small difference compared to the PBS control
